Where “and” joins values, the source holds several entries; their conditions need not be identical. Identical values can stand only once. Like-named read-outs stand apart in the source and are kept apart here.
Columns and labels:
[1] = tested on: alkylquinolones PQS and HHQ in P. aeruginosa PA14; assay: Alkylquinolone inhibition assay in PA14; format: cell-based; conditions: Pseudomonas aeruginosa
Experimental: 4. Secondary Activity Assays
4.1. Alkylquinolone Inhibition Assay
The inhibitory effect of the synthesized compounds on alkylquinolone production in PA was measured as previously described with the modification that wt PA14 was used instead of PA14pqsH.[6] Briefly, P. aeruginosa PA14 cultures were grown in the presence of DMSO as a control or DMSO solutions of inhibitors for 17 h. HHQ and PQS as well as HQNO were quantified from ethyl acetate extracts using 5,6,7,8-tetradeutero-2-heptyl-4(1H)-quinolone (HHQ-d4) as internal standard (IS). LC-ESI-MS/MS analysis was performed on a Dionex […]
(1 picture or pasted object on this page, not shown here)
Scientific, Waltham MA) with the following conditions: Zorbax Eclipse XDB 80 Å C18 5 µm 4.6 x 50 mm column (Agilent, Santa Clara, CA, USA); eluent A – H2O with 0.1% trifluoroacetic acid (TFA), 0.1% pentafluoropropionic acid (PFPA), 0.1% heptafluorobutyric acid (HFBA); eluent B – acetonitrile with 0.1% TFA, 0.1% PFPA, 0.1% HFBA; isocratic 50% A; flow – 0.7 mL/min. TSQ Quantum Access Max (Thermo Fisher Scientific, Waltham, MA, USA) instrument parameters: Spray voltage 3500 V, vaporizer temperature 370 °C, sheath gas pressure 35 psi, aux gas pressure 30 psi, capillary temperature 270 °C, collision pressure 1.5 mTorr, positive ionization mode. For AQ analyte reaction monitoring parameters […]
Data acquisition and quantification was performed using Xcalibur software with the use of a calibration curve relative to the area of the IS. IC50 values were calculated according to the procedure of the pyocyanin assay (see above).
Table S1: LC-ESI-MS/MS reaction monitoring parameters of AQ analytes in positive ionization mode. precursor product collision tube lens retention ion m/z ion m/z energy (V) offset (V) time (min)
Chemical and biological materials for in vitro assays: All chemicals were purchased from Sigma-Aldrich unless otherwise specified. Yeast extract was obtained from Fluka. Bacto™ Tryptone were obtained from BD Biosciences. Luria Bertani (LB) agar was obtained from Carl Roth. Gibco® PBS was obtained from Life Te chnologies. Purified water was prepared by a Milli-Q water purification system (Merk Millipore, Billerica, MA). The PA strain PA14 wild type (PA14 wt) was purchased from DSMZ, the German Collection of Microorganism and Cell Cultures GmbH (PA14 = DSMZ19882) and cultured in minimal proteose peptone glucose ammonium salt (PPGAS) medium. PPGAS was composed of 1 g/L NH4Cl, 1.5 g/L KCl, 19 g/L Tris-HCl, 10 g/L peptone, 5 g/L glucose and 0.1 g/L MgSO4∙7H2O. The pH value of the medium was adjusted to 7.2 ± 0.2 and sterilized before use. Agar solution was […]

[2] = tested on: eDNA production in PA biofilm; assay: Inhibition of eDNA production in biofilm; format: cell-based; conditions: Pseudomonas aeruginosa
[3] = In vivo pharmacokinetics after intratracheal instillation; parameters: species or system mouse; conditions: for Kp / Cmax / AUC(0-t) / MRT / Tmax / half-life / CL/F / Vd/F / AUC: male, CD1, mouse, inhaled or intranasal; for Kp: BALF and plasma, read-out: AUC ratio BALF/Plasma; for Vd/F: read-out: Vz/F_obs
Experimental: 6.2. PK Sample Preparation and Analysis
Groups of male CD1 mice (25-30 g, Charles River UK) were housed in groups of up to 6 and maintained under a 12 h light/dark cycle with free access to food and water. Temperature and humidity were controlled according to U.K. HO regulations. On the day of the study, mice were briefly anaesthetized with isoflurane before suspending the mouse by its upper incisors on a board held at an angle of approx. 45 degrees. Mice were then dosed intratracheally with the compound (4 or Tob) at the designated does formulated in ethanol/tyloxapol/glycerol/phosphate-buffered saline (PBS) [10:1:5:84] in a 1 mL/kg dosing volume up to a maximum of 30 µL per mouse. A laryngoscope was used to facilitate dosing.
Animals were allowed to recover before replacing into their home cages. […]
Blood samples were placed in tubes on ice containing EDTA anticoagulant. After gentle mixing, samples were centrifuged (10,000 rpm x 3 min) and two 50 μL aliquots taken into fresh tubes that were immediately frozen on dry ice. Following blood sample collection, tracheas were exposed and a small incision made. An 18 Gauge plastic tube was then inserted through the incision into the trachea and tied in place. Aliquots of 0.8 mL of sterile saline were then infused into and then withdrawn from the lungs and the collected bronchoalveolar lavage (BAL) sample placed into a tube. This process was repeated two more times, and the samples from each mouse pooled. The resulting samples were weighed and mixed, before a 1 mL aliquot was taken for analysis and frozen on dry ice.
Immediately after collecting the final BALF sample, lung samples were excised and excess tissue removed, before rinsing in saline, blotting and weighing. Samples were then snap frozen by immersion in liquid nitrogen. All samples were stored at -20 °C until sent for […]
All PK plasma samples were analyzed via HPLC-MS/MS using an Agilent 1290 Infinity II HPLC system coupled to an AB Sciex QTrap 6500plus mass spectrometer. First, a calibration curve was prepared by spiking different concentrations of compound 4 or Tob (Fa. Sigma) into plasma, homogenized lung from CD-1 mice or 0.9% sodium chloride solution as matrix for broncheoalveolar lavage fluid (BALF). The lower limits of quantification are indicated in Table S5. Caffeine was used as internal standard. In addition, quality control samples (QCs) were prepared for 4 and Tob in plasma, homogenized lung and 0.9% sodium chloride […]
The following extraction procedure was used for 4: plasma: 7.5 µL of a plasma sample (calibration samples, QCs or PK samples) was extracted with 37.5 µL of acetonitrile containing 12.5 ng/mL caffeine as internal standard for 10 min at 2000 rpm on an Eppendorf MixMate® vortex mixer. Lung: homogenized samples were diluted to 50 mg/mL lung tissue in 0.9% sodium chloride solution. A 50 µL of a lung sample (calibration samples, QCs or PK samples) was extracted with 15 µL water containing 10% formic acid and 50 µL of acetonitrile containing 12.5 ng/mL caffeine as internal standard for 10 min at 2.000 rpm on an Eppendorf MixMate® vortex mixer. BALF: 200 µL of methanol were added to 100 µL of a BALF sample (calibration samples, QCs or PK samples). Samples were concentrated in an Eppendorf concentrator until dryness at 30 °C. A 30 µL of water containing 10% formic acid

[4] = BALF, 0.5 mg kg^−1, mice, intratracheal, BALF, read-out: Cmax BALF
[5] = BALF, mice, intratracheal, Figure 3B, read-out: BALF: AUC0-t
[6] = ELF (calculated from BALF), 0.5 mg kg^−1, mice, intratracheal, ELF calculated from BALF, read-out: Cmax ELF
[7] = 0.5 mg kg^−1, mice, intratracheal, BALF, read-out: AUC0-t BALF
[8] = 0.5 mg kg^−1, mice, intratracheal, BALF, read-out: MRT BALF
[9] = 0.5 mg kg^−1, mice, intratracheal, BALF, read-out: Tmax BALF
[10] = 0.5 mg kg^−1, mice, intratracheal, ELF calculated from BALF, read-out: AUC0-t ELF
[11] = 0.5 mg kg^−1, mice, intratracheal, ELF calculated from BALF, read-out: MRT ELF
[12] = 0.5 mg kg^−1, mice, intratracheal, ELF calculated from BALF, read-out: Tmax ELF
[13] = 0.5 mg kg^−1, mice, intratracheal, ELF calculated from BALF, read-out: t1/2 ELF (converted)
[14] = 0.5 mg kg^−1, mice, intratracheal, lung tissue, read-out: MRT lung
[15] = 0.5 mg kg^−1, mice, intratracheal, lung tissue, read-out: Tmax lung
[16] = 0.5 mg kg^−1, mice, intratracheal, lung tissue, read-out: t1/2 lung (converted)
[17] = 0.5 mg kg^−1, mice, intratracheal, plasma
[18] = 0.5 mg kg^−1, mice, intratracheal, plasma, read-out: AUC0-t plasma
[19] = 0.5 mg kg^−1, mice, intratracheal, plasma, read-out: MRT plasma
[20] = 0.5 mg kg^−1, mice, intratracheal, plasma, read-out: Tmax plasma
[21] = mice, intratracheal (QSI 4 0.5 mg kg^−1), plasma, read-out: t1/2 plasma (converted)
[22] = mice, intratracheal, BALF, read-out: t1/2 BALF (converted)
[23] = plasma, 0.5 mg kg^−1, mice, intratracheal, plasma, read-out: Cmax plasma
[24] = plasma, mice, intratracheal, Figure 3B, read-out: Plasma: AUC0-t

Row | Compound | IC50 ([1]; PA14, read-out: IC50(HHQ)) [µM] | IC50 ([1]; PA14, read-out: IC50(PQS)) [µM] | IC50 [2] [µM] | Kp ([3]; mice, intratracheal) | Cmax [3, 4] | AUC(0-t) [3, 5] [ng·h/mL] | Cmax [3, 6] | AUC(0-t) [3, 7] | MRT [3, 8] [min] | Tmax [3, 9] [min] | AUC(0-t) [3, 10] | MRT [3, 11] [min] | Tmax [3, 12] [min] | half-life [3, 13] [min] | MRT [3, 14] [min] | Tmax [3, 15] [min] | half-life [3, 16] [min] | CL/F [3, 17] [mL/min/kg] | AUC(0-t) [3, 18] | MRT [3, 19] [min] | further results
1 | FC(F)(F)c1cc(NCc2cn(-c3ccc(Oc4ccccc4)cc3)nn2)ccn1 [Compound 4] | 0.37 ± 0.07 | 1.13 | 0.22 ± 0.05 | 86.9 | 3770 ng/mL and 9.2 µM | 4840 ± 2180 | 1290 ng/mL and 3.1 µM | 4840 ng·h/mL and 11.8 µM·h | 94.2 ± 6 | 30 | 3100 ng·h/mL and 7.5 µM·h | 96.6 ± 66 | 100 ± 120 | 33 ± 18 | 76.2 ± 24 | 30 | 64.8 ± 30 | 157 ± 55.5 | 55.8 ng·h/mL and 0.135 µM·h | 72 ± 6 | Cmax ([3]; BALF, 0.5 mg/kg, mice, intratracheal 0.5 mg kg^−1, BALF, read-out: C max in BALF): 3770 ± 2660 ng/mL; Tmax [3, 20]: 30 min; Vd/F [3, 17]: 10.5 ± 1.2 L/kg; AUC ([3]; mice, intratracheal 0.5 mg kg^−1, BALF, read-out: AUC0‐t BALF): 4840 ± 2180 ng·h/mL; AUC ([3]; mice, intratracheal 0.5 mg kg^−1, ELF, read-out: AUC0‐t ELF): 3100 ± 330 ng·h/mL; AUC ([3]; mice, intratracheal 0.5 mg kg^−1, plasma, read-out: AUC0‐t plasma): 55.8 ± 21.3 ng·h/mL; half-life [3, 21]: 51.6 ± 24 min; half-life [3, 22]: 43.2 ± 30 min; Cmax [3, 23]: 62.6 ng/mL and 151 nM; Cmax ([3]; plasma, 0.5 mg/kg, mice, intratracheal 0.5 mg kg^−1, plasma, read-out: plasma C max): 62.6 ± 45.7 ng/mL; AUC(0-t) [3, 24]: 55.8 ± 21.3 ng·h/mL
2 | COc1ccc(-n2cc(CNc3ccnc(C(F)(F)F)c3)nn2)cc1Cl [Compound 17] | 1.32 ± 0.39 | 2.08 ± 0.37 | 1.6 ± 1.1 | – | – | – | – | – | – | – | – | – | – | – | – | – | – | – | – | – | –
3 | NC[C@H]1O[C@H](O[C@H]2[C@H](O)[C@@H](O[C@H]3O[C@H](CO)[C@@H](O)[C@H](N)[C@H]3O)[C@H](N)C[C@@H]2N)[C@H](N)C[C@@H]1O [Tobramycin, tobramycin] | – | – | – | 3.2 | 215 ng/mL and 460 nM | 268 ± 27 | 38.8 ng/mL and 83 nM | 268 ng·h/mL and 0.57 µM·h | 84 ± 6 | 30 | 57.5 ng·h/mL and 0.12 µM·h | 90 ± 12 | 30 | 33.6 ± 12 | 116 | 30 | 67.8 | 45.3 ± 26.6 | 83.2 ng·h/mL and 0.178 µM·h | 87 ± 72 | Tmax [3, 20]: 30 min; Vd/F [3, 17]: 2.25 ± 1.6 L/kg; half-life [3, 21]: 45.6 ± 48 min; half-life [3, 22]: 49.2 ± 6 min; Cmax [3, 23]: 89.5 ng/mL and 191 nM; AUC(0-t) [3, 24]: 83.2 ± 35.3 ng·h/mL; Cmax BALF ([3]; mice, intratracheal, BALF): 215.4 ± 50 ng/mL
